The text below walks through data of patent publication US20260191874A1, “FUSED AMINO PYRIMIDINE COMPOUNDS FOR TREATMENT OF AUTISM SPECTRUM DISORDER, OBSESSIVE COMPULSIVE DISORDER AND TICS” (Ovid Therapeutics Inc., priority 2024, published 2026).

For one experiment, the target named is T1, KCC2-S940A (Homo sapiens, UniProt Q9H2X9, S963A).
T1 construct: expressed in transfected cells; host or cells: HEK-293
T1 sequence (Q9H2X9 1-1116 isoform Q9H2X9-2 S940A): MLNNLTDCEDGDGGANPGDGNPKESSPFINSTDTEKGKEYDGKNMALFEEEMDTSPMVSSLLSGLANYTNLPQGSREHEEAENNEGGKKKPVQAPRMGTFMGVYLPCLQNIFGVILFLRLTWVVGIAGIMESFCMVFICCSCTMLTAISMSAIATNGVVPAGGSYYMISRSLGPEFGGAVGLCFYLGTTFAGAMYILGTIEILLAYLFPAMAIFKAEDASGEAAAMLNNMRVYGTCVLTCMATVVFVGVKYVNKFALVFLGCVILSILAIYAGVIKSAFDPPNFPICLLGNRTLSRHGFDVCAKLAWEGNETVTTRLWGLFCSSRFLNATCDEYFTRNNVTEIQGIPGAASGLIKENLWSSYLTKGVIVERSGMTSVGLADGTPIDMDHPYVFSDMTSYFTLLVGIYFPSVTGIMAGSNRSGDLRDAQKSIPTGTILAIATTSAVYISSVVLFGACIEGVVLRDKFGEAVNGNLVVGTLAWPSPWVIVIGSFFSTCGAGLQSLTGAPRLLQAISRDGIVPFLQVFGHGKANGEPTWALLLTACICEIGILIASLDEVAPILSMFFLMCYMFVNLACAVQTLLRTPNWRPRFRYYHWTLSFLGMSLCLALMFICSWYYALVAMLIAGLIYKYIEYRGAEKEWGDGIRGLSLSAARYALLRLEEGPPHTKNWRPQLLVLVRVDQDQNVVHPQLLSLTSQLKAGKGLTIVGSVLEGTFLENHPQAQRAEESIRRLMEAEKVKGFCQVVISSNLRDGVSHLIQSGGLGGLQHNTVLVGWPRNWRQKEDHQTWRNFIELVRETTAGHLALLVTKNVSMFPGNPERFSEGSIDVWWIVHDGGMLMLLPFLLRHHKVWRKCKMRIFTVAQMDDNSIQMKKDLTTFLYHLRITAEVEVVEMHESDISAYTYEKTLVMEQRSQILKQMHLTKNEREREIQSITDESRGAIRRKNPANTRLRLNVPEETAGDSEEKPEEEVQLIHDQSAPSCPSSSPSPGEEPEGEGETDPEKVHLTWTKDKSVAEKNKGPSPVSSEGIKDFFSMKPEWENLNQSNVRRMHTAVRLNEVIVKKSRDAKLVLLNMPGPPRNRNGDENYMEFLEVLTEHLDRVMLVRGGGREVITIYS
The experiment can be described thus: Tl+ flux assay in HEK-293 cells expressing KCC2-S940A. The class given is cell-based. Here is the method: (§1) FLIPR TI Flux assay. HEK-293 cells were washed with HBSS, and then incubated with loading buffer containing TI sensitive fluorescent dye (https://www.moleculardevices.com), 20 μM bumetanide 20 μM ouabain and 2.5 mM probenecid for 1 h at room temperature (RT) under control conditions or with drugs in the dark using a FlexStation 3 microplate reader (Molecular Devices) and imaged […] for 30 min. Stimulus buffer was added containing 5 mM K^+/0.5 mM Tl^+ and cells were imaged every 1.5 over a 190 second time course The initial rate Tl^+ uptake (Relative Fluorescence Units (RFU) per second) was determined following addition of the stimulus buffer as outlined previously (Conway et al., 2017, supra) (Lee et al., 2022, supra).
(§2) Several studies have shown that the activity and plasma membrane accumulation of KCC2 is potentiated via phosphorylation of S940, a process mediated by the activity of protein kinase C and protein phosphatase 1 (Lee et al., 2011, supra; Lee et al., J Biol Chem 282, 29777-29784 (2007); Moore et al., Proc. Natl. Acad. Sci. U.S.A 115, 10166-10171 (2018); Moore et al., Trends Neurosci. 40, 555-571 (2017); Silayeva et al., Proc. Natl. Acad. Sci. U.S.A 112, 3523-3528 (2015)). […] Compared to KCC2, effects on KCC3, KCC4, and NKCC1 were only seen at concentrations more than 35-fold that of KCC2 (≥100 μM) (FIG. 1G).

In another experiment the target is T2, NKCC1 (Homo sapiens, UniProt P55011).
T2 construct: expressed in transfected cells; host or cells: HEK-293
T2 sequence (P55011 1-1212): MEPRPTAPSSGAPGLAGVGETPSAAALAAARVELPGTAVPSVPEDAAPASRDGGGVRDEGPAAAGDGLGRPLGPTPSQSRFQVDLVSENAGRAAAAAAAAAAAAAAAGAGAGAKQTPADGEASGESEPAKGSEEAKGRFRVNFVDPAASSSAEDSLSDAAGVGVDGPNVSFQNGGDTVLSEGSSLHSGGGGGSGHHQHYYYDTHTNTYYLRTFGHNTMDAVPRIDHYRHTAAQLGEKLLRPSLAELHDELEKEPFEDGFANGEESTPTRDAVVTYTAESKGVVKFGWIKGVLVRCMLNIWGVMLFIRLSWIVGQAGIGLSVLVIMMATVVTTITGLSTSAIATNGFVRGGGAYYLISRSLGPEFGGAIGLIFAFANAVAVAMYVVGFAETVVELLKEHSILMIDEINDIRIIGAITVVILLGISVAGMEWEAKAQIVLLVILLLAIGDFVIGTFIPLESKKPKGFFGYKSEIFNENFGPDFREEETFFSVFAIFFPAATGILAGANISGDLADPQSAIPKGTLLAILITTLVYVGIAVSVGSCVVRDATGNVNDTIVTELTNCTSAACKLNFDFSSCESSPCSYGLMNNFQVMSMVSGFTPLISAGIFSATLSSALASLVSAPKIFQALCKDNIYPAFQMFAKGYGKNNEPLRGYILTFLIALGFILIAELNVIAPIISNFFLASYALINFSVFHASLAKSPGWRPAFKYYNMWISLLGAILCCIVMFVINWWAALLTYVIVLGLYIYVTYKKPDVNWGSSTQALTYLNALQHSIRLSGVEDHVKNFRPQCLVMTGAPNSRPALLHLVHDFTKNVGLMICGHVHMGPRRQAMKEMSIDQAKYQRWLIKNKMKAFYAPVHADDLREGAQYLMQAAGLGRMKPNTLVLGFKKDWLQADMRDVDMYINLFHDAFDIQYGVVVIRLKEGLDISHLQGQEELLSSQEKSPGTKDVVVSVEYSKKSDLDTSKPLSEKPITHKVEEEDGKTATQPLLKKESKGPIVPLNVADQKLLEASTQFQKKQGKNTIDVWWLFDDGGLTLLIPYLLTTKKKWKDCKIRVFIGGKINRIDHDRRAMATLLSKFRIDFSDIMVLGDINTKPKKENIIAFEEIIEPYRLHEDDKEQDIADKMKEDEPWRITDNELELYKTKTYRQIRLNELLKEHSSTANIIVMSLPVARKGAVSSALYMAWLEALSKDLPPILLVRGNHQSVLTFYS
Description: Tl+ flux assay in HEK-293 cells expressing NKCC1. The class given is cell-based. The settings on record: read-out: concentration at which effects on NKCC1 were seen (EC50 chart, FIG. 1G). Here is the method:
as §1, §2

In the case of `C[C@@H]1CN(c2nc3c(c(Nc4ccc(C5CCCCC5)cc4)n2)COC3)CCO1` [Compound A, (R)—N-(4-cyclohexylphenyl)-2-(2-methylmorpholino)-5,7-dihydrofuro[3,4-d]pyrimidin-4-amine], the “activity of KCC2-S940A construct” value on KCC2-S940A was “increased the activity”. Besides, on NKCC1, the EC50 was no less than 100 µM.
